Results on 14 compounds are retold here after patent US11021435B2, “Serotonin receptor-targeting compounds and methods” (priority 2014, dated 2021).

Usually Ki stands for a measure of affinity in units of concentration, obtained from inhibition or displacement. One may read the IC50 as the concentration at which inhibition is half-maximal. Low readings indicate greater potency in that assay, high ones weaker potency in that assay. For orientation: Emax means the greatest response seen or fitted, relative to the assay's reference. The term EC50 denotes the concentration giving half of the maximal effect.

“Also recorded” adds a separate entry of the source.

Data set [1] has as its target T1, human 5-HT7 receptors (5-HT7a) (Homo sapiens, UniProt P34969).
T1 construct: expressed in transfected cells
Briefly: Radioligand competition binding ([3H]5-CT), HEK293 cells stably expressing human 5-HT7 receptors. The settings on record: Affinity Ki 5-HT7, our unreported observations. The text has this:
FIGS. 4A-4C show the effects of 5-FPT are stereospecific. […] Data are expressed as the mean±SEM.
On the technique in general: In a radioligand displacement assay an active substance lowers the binding of a labelled ligand.

Data set [2] has as its target T2, 5-HT2A (Homo sapiens, UniProt P28223). Kind of data set: Radioreceptor competitive binding, [3H]ketanserin (4-PAT series). Conditions: 2.0 nM [3H]ketanserin; HCl salts; read-out: Affinity (Ki ± SEM) 5-HT2A. The method, then: (§1) Radioreceptor competitive binding assays were carried out to assess the binding affinities of the compounds of the invention. Radioligand competitive displacement binding assays were performed in 96-well plates, using 3-5 μg of protein from membrane samples per well. Each concentration point in the binding experiments was performed in triplicates of samples, and each experiment was performed a minimum of three times. […] Non-specific binding was determined in the presence of or 10 μM mianserin for all three 5-HT2 receptors or 10 μM triprolidine for H1 receptors. Radioreceptor binding assay mixtures were incubated for 1.0 hour at 37° C., with termination by rapid filtration through Whatman GF/B filters using a 96-well cell harvester (Tomtec, Hamden, Conn.), which were subsequently washed five times with 50 mM Tris-HCl at room temperature. Filters containing bound [^3H]radioligand were dried, placed in vials containing 2 mL scintillation cocktail (ScintiVerse), allowed to equilibrate overnight, and then were counted for ^3H-induced scintillation using a Beckman-Coulter LS6500 counter.
(§2) Competition binding data were analyzed using nonlinear regression curve-fitting algorithms in GraphPad Prism, 6 for Windows (San Diego, Calif.). […] Ligand affinity was expressed as an approximation of Ki values by conversion of the IC50 value using the Cheng-Prusoff equation […] where L was the concentration of radioligand.

The target in data set [3] is T3, 5-HT2B (Homo sapiens, UniProt P41595). Kind of data set: Radioreceptor competitive binding, [3H]mesulergine (4-PAT series). The settings on record: 1.95 nM [3H]mesulergine; read-out: Affinity (Ki ± SEM) 5-HT2B. The method, then: as §1, §2
For data set [4], the target named is T4, 5-HT2C (Homo sapiens, UniProt P28335).
T4 sequence (P28335 33-458): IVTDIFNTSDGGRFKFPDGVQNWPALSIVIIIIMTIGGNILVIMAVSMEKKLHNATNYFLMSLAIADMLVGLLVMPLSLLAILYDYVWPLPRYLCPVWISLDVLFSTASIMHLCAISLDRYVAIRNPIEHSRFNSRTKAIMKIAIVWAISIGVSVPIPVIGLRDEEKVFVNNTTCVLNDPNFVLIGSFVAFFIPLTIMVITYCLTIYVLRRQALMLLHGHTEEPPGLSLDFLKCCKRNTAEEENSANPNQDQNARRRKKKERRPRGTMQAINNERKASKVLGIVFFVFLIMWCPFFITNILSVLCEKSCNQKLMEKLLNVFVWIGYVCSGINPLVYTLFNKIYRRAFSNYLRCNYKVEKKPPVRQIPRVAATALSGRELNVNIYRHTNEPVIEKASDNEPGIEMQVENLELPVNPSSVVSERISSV
The data set is described as above. The settings on record: read-out: Affinity (Ki ± SEM) 5-HT2C. The method, then: as §1, §2

For a further data set, the target named is H1 (Homo sapiens, UniProt P35367). Briefly: Radioreceptor competitive binding, [3H]mepyramine (4-PAT series). The settings on record: for Ki: 1.0 nM [3H]mepyramine, read-out: Affinity (Ki ± SEM) H1. The method, then: as §1, §2
The target in another data set is T5, histamine H1 receptor (Homo sapiens, UniProt P35367).
T5 construct: expressed in transfected cells; host or cells: HEK293, transient
Kind of data set: Receptor-mediated inositol phosphate hydrolysis, transfected HEK293 cells. The data set is classed as cell-based. The method, then: (§3) Functional responses of analog 7l and 5-HT (positive control agonist, data not shown) by measuring 5-HT2 and H1 receptor-mediated inositol phosphate hydrolysis were assessed. In brief, transiently transfected HEK293 cells were labeled with 1 μCi/ml [3H]myoinositol and seeded into 48-well plates. Cells were treated with test compounds for 30 minutes. The reaction was stopped by addition of 50 mM formic acid. Anion-exchange columns (Bio-Rad Laboratories, Hercules, Calif.) were used to bind and collect [3H]inositol phosphates. 3H-induced scintillations then were measured. Each experiment included a minimum of triplicate measurements for each concentration of test compound, and each experiment was performed a minimum of three times.

The target of data set [5] is T2, 5-HT2A. The data set is described as above. Conditions: concentrations up to 10 μM. Set-up: expressed in transfected cells; host or cells: HEK293, transient. The data set is classed as cell-based. As for the experimental part: as §3
Data set [6] concerns the target T3, 5-HT2B. The data set is described as above. Details: expressed in transfected cells; host or cells: HEK293, transient. The data set is classed as cell-based. As for the experimental part:
as §3

Data set [7] concerns the target T4, 5-HT2C. The description is as above. Format: cell-based. Set-up: expressed in transfected cells; host or cells: HEK293, transient. As for the experimental part:
In brief, transiently transfected HEK293 cells were labeled with 1 μCi/ml [3H]myoinositol and seeded into 48-well plates. Cells were treated with test compounds for 30 minutes. The reaction was stopped by addition of 50 mM formic acid. Anion-exchange columns (Bio-Rad Laboratories, Hercules, Calif.) were used to bind and collect [3H]inositol phosphates. 3H-induced scintillations then were measured. Each experiment included a minimum of triplicate measurements for each concentration of test compound, and each experiment was performed a minimum of three times.

The next data set deals with C57BI/6J mice. Briefly: DOI-elicited head-twitch response (HTR) in C57BI/6J mice. The text has this: The 5-HT2A receptor is a predominant 5-HT receptor in the cortex, and serves important excitation modulation functions on glutamate pyramidal and GABA neurons.
Data set [8] deals with T2, 5-HT2A. Set-up: expressed in transfected cells; host or cells: HEK293, transient. The settings on record: cited from earlier work.
Data set [9] deals with T3, 5-HT2B. Set-up: expressed in transfected cells; host or cells: HEK293, transient. Conditions: cited from earlier work.

T2 sequence (P28223 whole entry): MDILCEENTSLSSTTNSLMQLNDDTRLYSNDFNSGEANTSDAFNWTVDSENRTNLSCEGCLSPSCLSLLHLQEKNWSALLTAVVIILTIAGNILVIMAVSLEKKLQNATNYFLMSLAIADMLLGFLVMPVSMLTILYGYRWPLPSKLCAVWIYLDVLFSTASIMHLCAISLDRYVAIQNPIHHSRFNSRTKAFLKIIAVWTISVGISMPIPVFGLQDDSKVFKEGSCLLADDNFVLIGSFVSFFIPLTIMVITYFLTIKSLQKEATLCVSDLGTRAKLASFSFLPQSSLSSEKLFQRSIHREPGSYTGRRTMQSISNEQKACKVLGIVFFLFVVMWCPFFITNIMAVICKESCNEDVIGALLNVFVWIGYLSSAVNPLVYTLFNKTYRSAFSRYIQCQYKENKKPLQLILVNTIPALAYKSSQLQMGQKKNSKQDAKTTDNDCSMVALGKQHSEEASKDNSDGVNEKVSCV
T3 sequence (P41595 whole entry): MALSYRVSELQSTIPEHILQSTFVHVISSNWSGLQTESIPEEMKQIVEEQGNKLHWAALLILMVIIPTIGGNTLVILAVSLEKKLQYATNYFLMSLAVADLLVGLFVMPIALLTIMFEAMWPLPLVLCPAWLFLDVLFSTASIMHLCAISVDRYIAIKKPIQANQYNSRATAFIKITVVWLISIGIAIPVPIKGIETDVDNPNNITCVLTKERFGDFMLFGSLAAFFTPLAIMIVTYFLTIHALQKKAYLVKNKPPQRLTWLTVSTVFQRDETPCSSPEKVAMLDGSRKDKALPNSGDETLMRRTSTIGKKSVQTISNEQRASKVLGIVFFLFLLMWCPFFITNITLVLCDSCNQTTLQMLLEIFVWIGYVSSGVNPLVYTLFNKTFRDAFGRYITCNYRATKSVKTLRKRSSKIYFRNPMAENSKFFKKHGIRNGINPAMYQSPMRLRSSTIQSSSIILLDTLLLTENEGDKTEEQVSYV
H1, sequence (P35367 whole entry): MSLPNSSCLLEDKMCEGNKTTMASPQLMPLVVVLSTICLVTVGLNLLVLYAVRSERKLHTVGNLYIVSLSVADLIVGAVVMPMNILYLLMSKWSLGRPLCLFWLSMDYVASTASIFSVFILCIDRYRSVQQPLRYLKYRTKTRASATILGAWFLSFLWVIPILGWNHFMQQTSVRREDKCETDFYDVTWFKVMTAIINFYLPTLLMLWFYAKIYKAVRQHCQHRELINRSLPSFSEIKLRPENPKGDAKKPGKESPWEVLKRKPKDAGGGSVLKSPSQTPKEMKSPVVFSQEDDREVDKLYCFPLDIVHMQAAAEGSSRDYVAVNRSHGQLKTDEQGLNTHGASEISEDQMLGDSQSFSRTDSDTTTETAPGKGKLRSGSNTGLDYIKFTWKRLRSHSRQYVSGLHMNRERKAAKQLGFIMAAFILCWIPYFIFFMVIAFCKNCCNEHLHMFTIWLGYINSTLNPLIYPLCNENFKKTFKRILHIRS
T5 sequence (P35367 whole entry): as above
T1 sequence (P34969 1-445 isoform P34969-2): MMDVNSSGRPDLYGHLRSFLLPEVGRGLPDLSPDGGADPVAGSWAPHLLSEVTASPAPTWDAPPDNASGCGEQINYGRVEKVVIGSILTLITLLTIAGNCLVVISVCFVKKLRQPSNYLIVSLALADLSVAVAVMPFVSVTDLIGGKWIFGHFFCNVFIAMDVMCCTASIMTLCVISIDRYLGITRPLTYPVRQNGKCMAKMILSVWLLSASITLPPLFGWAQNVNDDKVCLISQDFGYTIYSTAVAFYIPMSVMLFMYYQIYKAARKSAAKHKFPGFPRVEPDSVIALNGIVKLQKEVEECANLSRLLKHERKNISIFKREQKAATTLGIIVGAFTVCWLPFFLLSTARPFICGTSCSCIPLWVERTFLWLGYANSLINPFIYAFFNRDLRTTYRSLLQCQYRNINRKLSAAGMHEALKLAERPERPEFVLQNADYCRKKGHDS

As for `COc1cc(CC(C)N)c(OC)cc1I` (racemic) [DOI, (±)-2,5-dimethoxy-4-iodoamphetamine, reference compound], the Ki in data set [1] was greater than 1000 nM.
Regarding `COc1cc2c(cc1Cl)C[C@@H](N(C)C)C[C@@H]2c1ccccc1` (single isomer, unassigned), the inhibition constant (Ki) at 5-HT2A [2] is 160 ± 24 nM; at 5-HT2B [3] it was 17.3 ± 5.33 nM; on 5-HT2C [4], 24 ± 2.5 nM; on H1 it was 1.2 ± 0.6 nM.
On to `COc1cc2c(cc1Cl)C[C@@H](N(C)C)C[C@H]2c1ccccc1` (single isomer, unassigned) [Compound 7c, Cis-4-Phenyl-6-methoxy-7-chloro-N,N-dimethyl-1,2,3,4-tetrahydronaphthalen-2-amine], for which the Ki on 5-HT2A [2] is 2300 nM; on 5-HT2B [3] it was 2500 nM; at 5-HT2C [4], 1600 nM; at H1, greater than 1000 nM. Moreover, the “Lower H1 receptor affinity than (+)-cis-PAT 1c analog” value on H1 is listed as “about 10 fold”.
As for `COc1cc2c(cc1Cl)C[C@@H](N(C)C)C[C@H]2c1ccccc1` (single isomer, unassigned) [Compound 7d, Cis-4-Phenyl-6-methoxy-7-chloro-N,N-dimethyl-1,2,3,4-tetrahydronaphthalen-2-amine], the Ki amounted to 320 ± 42 nM at 5-HT2A [2], 43 ± 5 nM at 5-HT2B [3], 96 ± 18 nM at 5-HT2C [4] and 10.8 ± 0.6 nM on H1.
For `COc1cc2c(cc1Cl)CC(N(C)C)CC2c1cccc(Cl)c1` (single isomer, unassigned) [Compound 7f] the same measures were 50 ± 20 nM, 56 nM, 9 ± 2 nM and 18.9 ± 0.7 nM.
The like results for `COc1cc2c(cc1Cl)C[C@@H](N(C)C)C[C@@H]2c1cccc(Br)c1` (single isomer, unassigned) [Compound 7i, Trans-4-(3′-Bromophenyl)-6-methoxy-7-chloro-N,N-dimethyl-1,2,3,4-tetrahydronaphthalen-2-amine] were, in that order, 79 ± 14 nM, 169 ± 27 nM, 350 ± 130 nM and 650 ± 21 nM.
For `COc1cc2c(cc1Cl)C[C@@H](N(C)C)C[C@@H]2c1cccc(Br)c1` (single isomer, unassigned) [Compound 7j, Trans-4-(3′-Bromophenyl)-6-methoxy-7-chloro-N,N-dimethyl-1,2,3,4-tetrahydronaphthalen-2-amine] the same measures were 61 ± 15 nM, 50 nM, 130 ± 43 nM and 230 ± 33 nM.
In the case of `COc1ccc2c(c1)[C@@H](c1cccc(Cl)c1)C[C@H](N(C)C)C2` (single isomer, unassigned) [Compound 7k, Trans-4-(3′-Chlorophenyl)-6-methoxy-N,N-dimethyl-1,2,3,4-tetrahydronaphthalen-2-amine], the Ki on 5-HT2A [2] was 350 ± 16 nM; at 5-HT2B [3], 310 ± 41 nM; at 5-HT2C [4] it was 280 ± 30 nM; at H1, 740 ± 80 nM.
Regarding `COc1ccc2c(c1)[C@@H](c1cccc(Cl)c1)C[C@H](N(C)C)C2` (single isomer, unassigned) [Compound 7l, Trans-4-(3′-Chlorophenyl)-6-methoxy-N,N-dimethyl-1,2,3,4-tetrahydronaphthalen-2-amine], the inhibition constant Ki on 5-HT2A [2] was determined as 35 ± 3 nM; on 5-HT2B [3] it was 65 nM; on 5-HT2C [4], 17 ± 1 nM; on H1, 86 ± 18 nM. For the same compound, the “Reduced affinity at H1 receptors compared to unsubstituted PAT (7b)” value on H1 is reported as greater than 40 fold. For the same compound, the “Efficacy H1, Imax” value at histamine H1 receptor (inverse agonist) was −25 ± 1.5%. Besides, the IC50 against histamine H1 receptor (mean ± S.E.M.) is 48 nM; against 5-HT2B [6] (mean ± S.E.M.), 51 nM. For the same compound, the “Function 5-HT2A (activation)” value at 5-HT2A [5] is “did not activate”; at 5-HT2A [5] (listed as 71) it was “No”. The “Efficacy 5-HT2B, Imax” value on 5-HT2B [6] (inverse agonist) is reported as “Imax = −17 ± 4.6%”. The Emax on 5-HT2C [7] (HEK293, read-out: Efficacy 5-HT2C, EMAX) was 73 ± 6%. Further, the EC50 at 5-HT2C [7] (read-out: Function 5-HT2C, EC50 (agonist potency)) was determined as 19 ± 1 nM.
As for `CN(C)[C@@H]1Cc2cc(Cl)c(O)cc2[C@@H](c2ccccc2)C1` (single isomer, unassigned) [Compound 7m, Trans-4-Phenyl-6-hydroxy-7-chloro-N,N-dimethyl-1,2,3,4-tetrahydronaphthalen-2-amine], the Ki at 5-HT2A [2] is 70 ± 2.6 nM; on 5-HT2B [3] it was 1200 nM; on 5-HT2C [4], 1000 nM; on H1 it was 109 ± 17 nM.
For `CN(C)[C@@H]1Cc2cc(Cl)c(O)cc2[C@@H](c2ccccc2)C1` (single isomer, unassigned) [Compound 7n, Trans-4-Phenyl-6-hydroxy-7-chloro-N,N-dimethyl-1,2,3,4-tetrahydronaphthalen-2-amine] the same measures were 60 ± 5.4 nM, 91 nM, 23 ± 3 nM and 3 ± 1 nM.
Consider `Cc1nn(C)c(C)c1-c1cccc2c1CC[C@H](N(C)C)C2` [AS-19, reference compound], for which, in the data set on C57BI/6J mice (C57BI/6J mice, DOI 1 mg/kg, 5-FPT up to 5.6 mg/kg, AS-19 10 mg/kg, DPAT 0.5 mg/kg), the “DOI-elicited HTR” value was “suppressed the DOI HTR; also recorded: attenuated the HTR”. In the data set on C57BI/6J mice (data not shown), the “Locomotor behavior and serotonin syndrome seen in the DOI HTR assay” value was “neither (−)-DPAT, a 5-HT1A partial agonist, nor AS-19 affected locomotor behavior or caused obvious serotonin syndrome”.
Turning to `C[C@H](N)Cn1ccc2cc(F)c(Cl)cc21` [Ro60-0175], the “Activation of 5-HT2A receptors by reported selective 5-HT2C agonists” value on 5-HT2A [8] is given as “also activate”. The “Activation of 5-HT2B receptors by reported selective 5-HT2C agonists” value at 5-HT2B [9] is reported as “also activate”.
As for `C[C@H]1CNCCc2ccc(Cl)cc21` [lorcaserin], the “Activation of 5-HT2A receptors by reported selective 5-HT2C agonists” value at 5-HT2A [8] was “also activate”. Also, on 5-HT2B [9], the “Activation of 5-HT2B receptors by reported selective 5-HT2C agonists” value is “also activate”.
